The values below come from ChEMBL document CHEMBL4715750, “Synthesis and in vitro, ex-vivo and in vivo activity of hybrid compounds linking a potent ROS and RNS scavenger activity with diverse substrates addressed to pass across the blood-brain barrier” (Eur J Med Chem, 2016).

Data set [1] is described as follows: Permeability of the compound at pH 7.4 by PAMPA-BBB assay. The format is ADME. The settings on record: read-out: permeability. On the technique in general: PAMPA measures passive passage across an artificial lipid membrane.
Data set [2] can be described thus: Cytotoxicity against human SH-SY5Y cells assessed as cell viability at 12.5 uM measured after 2 hrs by MTT assay relative to control. The class given is cell-based. The settings on record: read-out: Activity. (In general: Tetrazolium dyes change colour on reduction, which living cells bring about.)
The nature of data set [3]: Cytotoxicity against human SH-SY5Y cells assessed as cell viability at 3.1 uM measured after 2 hrs by MTT assay relative to control. The settings on record: read-out: Activity. The format is cell-based.
Data set [4] is described as follows: Cytotoxicity against human SH-SY5Y cells assessed as cell viability at 0.8 uM measured after 24 hrs by MTT assay relative to control. The format is cell-based. To be noted: read-out: Activity.
Data set [5] is described as follows: Cytotoxicity against human SH-SY5Y cells assessed as cell viability at 0.8 uM measured after 2 hrs by MTT assay relative to control. The format is cell-based. The settings on record: read-out: Activity.
The nature of data set [6]: Drug concentration in Sprague-Dawley rat brain at 0.2 mmol/Kg, ip measured after 1 hr by HPLC based fluorimetric analysis. The format is ADME, organism-based. To be noted: in vivo.
Data set [7] in a line: Cytotoxicity against human SH-SY5Y cells assessed as cell viability at 25 uM measured after 2 hrs by MTT assay relative to control. The format is cell-based. The settings on record: read-out: Activity.
Data set [8] can be described thus: Antioxidant activity assessed as DPPH radical scavenging activity incubated for 60 mins in absence of light. The format is functional.
A short description of data set [9]: Cytotoxicity against human SH-SY5Y cells assessed as cell viability at 1.6 uM measured after 24 hrs by MTT assay relative to control. The settings on record: read-out: Activity. The class given is cell-based.
Data set [10] is described as follows: Cytotoxicity against human SH-SY5Y cells assessed as cell viability at 100 uM measured after 2 hrs by MTT assay relative to control. The format is cell-based. To be noted: read-out: Activity.
The nature of data set [11]: Cytotoxicity against human SH-SY5Y cells assessed as cell viability at 50 uM measured after 24 hrs by MTT assay relative to control. The class given is cell-based. To be noted: read-out: Activity.
A short description of data set [12]: Cytotoxicity against human SH-SY5Y cells assessed as cell viability at 25 uM measured after 24 hrs by MTT assay relative to control. The format is cell-based. The settings on record: read-out: Activity.
Data set [13] is described as follows: Cytotoxicity against human SH-SY5Y cells assessed as cell viability at 12.5 uM measured after 24 hrs by MTT assay relative to control. The class given is cell-based. To be noted: read-out: Activity.
Data set [14] has as its system SH-SY5Y. Briefly: Antioxidant activity in human SH-SY5Y cells assessed as inhibition of H2O2-induced DCFH oxidation measured after 1 hr by DCFH-DA dye based fluorescence assay. The format is functional, cell-based.
Data set [15] deals with SH-SY5Y. As to the kind of experiment: Cytoprotective activity against DMSO-induced toxicity in human SH-SY5Y cells. The format is functional, cell-based.
Data set [16] can be described thus: Cytotoxicity against human SH-SY5Y cells assessed as cell viability at 100 uM measured after 24 hrs by MTT assay relative to control. The format is cell-based. The settings on record: read-out: Activity.
Data set [17] in a line: Drug concentration in Sprague-Dawley rat plasma at 0.2 mmol/Kg, ip measured after 1 hr by HPLC based fluorimetric analysis. The class given is ADME, organism-based.
Data set [18] in a line: Cytotoxicity against human SH-SY5Y cells assessed as cell viability at 3.1 uM measured after 24 hrs by MTT assay relative to control. The format is cell-based. The settings on record: read-out: Activity.
A short description of data set [19]: Cytotoxicity against human SH-SY5Y cells assessed as cell viability at 6.3 uM measured after 2 hrs by MTT assay relative to control. The format is cell-based. To be noted: read-out: Activity.
Data set [20] can be described thus: Cytotoxicity against human SH-SY5Y cells assessed as cell viability at 50 uM measured after 2 hrs by MTT assay relative to control. The format is cell-based. To be noted: read-out: Activity.
The nature of data set [21]: Cytotoxicity against human SH-SY5Y cells assessed as cell viability at 1.6 uM measured after 2 hrs by MTT assay relative to control. The class given is cell-based. To be noted: read-out: Activity.
Data set [22] is described as follows: Cytotoxicity against human SH-SY5Y cells assessed as cell viability at 6.3 uM measured after 24 hrs by MTT assay relative to control. The class given is cell-based. To be noted: read-out: Activity.
Data set [23] can be described thus: Retention time in Sprague-Dawley rat brain by HPLC based fluorimetric analysis. The format is ADME, tissue-based.

The source made the active and inactive calls. The calls are words filed in the database; no cut-off is given here.

On to `COc1cc2c(cc1O)CCC(C)(CC(=O)N[C@@H](Cc1ccccc1)C(=O)O)O2` (some centres undefined), for which, in data set [1], the Papp was determined as 0.49 ×10⁻⁶ cm/s. Moreover, in data set [2], the viability at 2 h, 12.5 µM was 100%. Also, the viability at 2 h, 3.1 µM in data set [3] stood at 100%. Moreover, the viability at 24 h, 0.8 µM in data set [4] worked out at 100%. Also, the viability at 2 h, 0.8 µM in data set [5] came to 99%. The Ct in [6] amounted to 0 nmol/g. Also, the viability at 2 h, 25 µM in data set [7] is 100%. Besides, the figures for the half-inhibitory concentration (IC50) (in data set [8]; in the data set with SH-SY5Y [14]) were 14.9 µM and 44.5 µM, respectively. Further, the viability at 24 h, 1.6 µM in [9] was determined as 100%. For the same compound, the viability at 2 h, 100 µM in [10] was 72.2%. For the same compound, in [11], the viability at 24 h, 50 µM was 89.5%. Further, the viability at 24 h, 25 µM in data set [12] stood at 81.1%. For the same compound, the viability at 24 h, 12.5 µM in [13] was 82.3%. Further, the Activity entry with SH-SY5Y [14] is “Dose-dependent effect”. Besides, the result in the data set on SH-SY5Y [15] was Active. Besides, the viability at 24 h, 100 µM in data set [16] came to 59.1%. In data set [17], this compound came in with a concentration at 1 h of 900 nM. In addition, in [18], the viability at 24 h, 3.1 µM is 93%. Also, the viability at 2 h, 6.3 µM in [19] is 100%. Moreover, in data set [20], the viability at 2 h, 50 µM is 100%. Also, the viability at 2 h, 1.6 µM in [21] came out at 100%. Moreover, in data set [22], the viability at 24 h, 6.3 µM was 87.5%.
Turning to `COc1cc2c(cc1O)CCC(C)(CCNC(C)=O)O2` (centres undefined), the Papp in data set [1] came to 0.52 ×10⁻⁶ cm/s. Further, the viability at 2 h, 12.5 µM in [2] amounted to 84.8%. In addition, the viability at 2 h, 3.1 µM in data set [3] came out at 82.3%. In addition, in [4], the viability at 24 h, 0.8 µM was determined as 89%. The viability at 2 h, 0.8 µM in data set [5] came to 91.3%. This compound displayed a Ct in data set [6] of 2.3 nmol/g. Also, the viability at 2 h, 25 µM in [7] is 89.2%. For the same compound, the IC50 (commonly the concentration that inhibits the measured activity by half) in [8] was 14.3 µM. Further, in [9], the viability at 24 h, 1.6 µM amounted to 78.7%. In data set [10], the viability at 2 h, 100 µM is 66.6%. Besides, the viability at 24 h, 50 µM in data set [11] turned out to be 66.5%. In addition, the viability at 24 h, 25 µM in [12] came to 76.2%. Moreover, in data set [13], the viability at 24 h, 12.5 µM worked out at 83.5%. In [23], this compound displayed a Retention_time of 4 min. Further, in the data set on SH-SY5Y [14], the Activity entry is “Dose-dependent effect” and the IC50 amounted to 50.3 µM. Further, in data set [16], the viability at 24 h, 100 µM came to 57.9%. Also, the concentration at 1 h in [17] was 3000 nM. Further, the viability at 24 h, 3.1 µM in data set [18] is 90.7%. Moreover, the viability at 2 h, 6.3 µM in data set [19] is 79.4%. Besides, the viability at 2 h, 50 µM in [20] stood at 81.2%. Besides, the viability at 2 h, 1.6 µM in data set [21] came out at 100%. For the same compound, the viability at 24 h, 6.3 µM in data set [22] is 87.8%.
Consider `COc1cc2c(cc1O)CCC(C)(CCNC(=O)C[C@H]1OC(O)[C@H](O)[C@@H](O)[C@@H]1O)O2` (some centres undefined), for which the viability at 2 h, 12.5 µM in data set [2] turned out to be 100%. The viability at 2 h, 3.1 µM in [3] came to 93.3%. For the same compound, the viability at 24 h, 0.8 µM in data set [4] was 96.1%. Further, the viability at 2 h, 0.8 µM in data set [5] turned out to be 88.9%. Also, the Ct in data set [6] was 3.1 nmol/g. Also, the viability at 2 h, 25 µM in data set [7] amounted to 100%. Besides, the IC50 in [8] amounted to 13.1 µM. Besides, the viability at 24 h, 1.6 µM in data set [9] was 96.7%. Besides, the viability at 2 h, 100 µM in data set [10] was determined as 77.6%. Further, in data set [11], the viability at 24 h, 50 µM was found to be 86.6%. Further, the viability at 24 h, 25 µM in data set [12] stood at 87.9%. Besides, the viability at 24 h, 12.5 µM in [13] was found to be 90.6%. Further, the Retention_time in data set [23] came out at 2 min. Further, in the data set on SH-SY5Y [14], the Activity entry is “Dose-dependent effect” and the IC50 was determined as 35.6 µM. For the same compound, the result in the data set with SH-SY5Y [15] was Active. Besides, in data set [16], the viability at 24 h, 100 µM came out at 56.6%. The same compound returned a concentration at 1 h in data set [17] of 26000 nM. For the same compound, the viability at 24 h, 3.1 µM in [18] turned out to be 88.1%. Moreover, the viability at 2 h, 6.3 µM in data set [19] turned out to be 100%. In data set [20], the viability at 2 h, 50 µM was 99.6%. For the same compound, the viability at 2 h, 1.6 µM in data set [21] was 95.3%. Moreover, the viability at 24 h, 6.3 µM in [22] turned out to be 87.2%.
